Measured values published in patent publication US7323541B2, “Polypeptide DNA thereof and use of the same” (Takeda Pharmaceutical Company Limited, priority 2001, dated 2008).
Changes are numbered by the printed parent chain. Where no end group is shown, it is not given here.

What was measured:
[1] = biological target: T1, TGR23-1 expressing CHO cells (Homo sapiens, UniProt Q6W5P4); experiment: Intracellular Ca ion concentration increasing activity using FLIPR; type: cell-based; conditions: variety of concentrations
T1 construct: the clones having the cDNA of TGR23-1, which is contained in pTB2173, were selected; expressed in transfected cells; host or cells: hamster CHO/dhfr- cells, vector pAKKO-111H (pAKKO-TGR23-1), clones No. 49 and No. 52
T1 sequence (Q6W5P4 1-371): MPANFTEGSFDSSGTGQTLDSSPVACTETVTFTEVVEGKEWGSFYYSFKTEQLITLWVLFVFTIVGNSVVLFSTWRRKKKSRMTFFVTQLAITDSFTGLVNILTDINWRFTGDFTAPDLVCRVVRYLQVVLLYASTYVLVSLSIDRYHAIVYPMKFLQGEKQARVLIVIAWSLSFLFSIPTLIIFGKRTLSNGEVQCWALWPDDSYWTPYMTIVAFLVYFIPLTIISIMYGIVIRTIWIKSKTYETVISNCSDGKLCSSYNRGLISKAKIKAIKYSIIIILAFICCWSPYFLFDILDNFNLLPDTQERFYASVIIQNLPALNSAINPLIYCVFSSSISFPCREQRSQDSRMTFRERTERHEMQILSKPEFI
Procedure: (§1) An enhancing activity of intracellular Ca^2+ release was assayed using FLIPR (Molecular Devices, Inc.). The CHO/TGR23-2 cells prepared in Example 1 and selected in Example 2 were plated on 96-well plate at 3×10^4 cells/well and cultured for 24 hours. A loading buffer was prepared by adding 1 vial of Fluo 3-AM to 10 ml of Hanks' solution (pH7.4) containing 2.5 mM Probenecid and 20 mM HEPES (hereafter, Hanks' solution (pH7.4) containing 2.5 mM Probenecid and 20 mM HEPES may be referred to as a washing buffer). The culture medium was discarded from the culture plate and 100 μl/well of the loading buffer were added to the cells. Then, the cells were incubated for 60 minutes in the incubator. After the loading buffer was removed from the culture plate and the cells were washed with the washing buffer, the plate was put in place of FLIPR. A sample was prepared by adding a sample buffer, which 2 mg/ml BSA and 1 mg/ml CHAPS were added to the washing buffer, to lyophilized product, stirring and treating by ultrasonication for 30 minutes, and transferred to 96-well sample plate. This sample plate was also put in place for assay. The enhancing activity of intracellular Ca^2+ release was measured as an increase of fluorescent intensity, which is raised by addition of the sample. Human TGR23-2 ligand (1-20) obtained in Example 17 was administered to TGR23-1 expressing CHO cells and TGR23-2 expressing CHO cells at a variety of concentrations according to the method described in Example 5, and the increasing activity of intracellular Ca ion concentration was determined using FLIPR. […] Rat TGR23-2 ligand (1-18) prepared by the method described in Example 19 and mouse TGR23-2 ligand (1-20) prepared by the method described in Example 20 were administered to TGR23-1 expressing CHO cells and TGR23-2 expressing CHO cells at a variety of concentrations according to the method described in Example 5, and the increasing activity of intracellular Ca ion concentration was determined using FLIPR.

[2] = biological target: T2, TGR23-2 expressing CHO cells (Homo sapiens, UniProt Q6W5P4, N107I/Q344R); experiment: as above; type: cell-based; conditions: variety of concentrations
T2 construct: the clones having the cDNA of TGR23-2, which is contained in pTB2174, were selected; expressed in transfected cells; host or cells: hamster CHO/dhfr- cells, vector pAKKO-111H (pAKKO-TGR23-2)
T2 sequence (Q6W5P4 1-371 N107I/Q344R): T1 sequence (Q6W5P4 1-371) with N107I, Q344R
Procedure: as §1

[3] = biological target: T3, membrane fraction of TGR23-2 expressing CHO cells (Homo sapiens, UniProt Q6W5P4, N107I/Q344R); experiment: GTPγS binding activity in membrane fraction; type: biochemical
T3 construct: the clones having the cDNA of TGR23-2, which is contained in pTB2174, were selected; expressed in transfected cells; host or cells: hamster CHO/dhfr- cells, vector pAKKO-111H (pAKKO-TGR23-2)
T3 sequence (Q6W5P4 1-371 N107I/Q344R): T1 sequence (Q6W5P4 1-371) with N107I, Q344R
Procedure: Enhancing activity of binding of [^35S]-Guanosine 5′-(γ-thio) triphosphate in the membrane fraction of TGR23-2 expressing CHO cells was measured by the following method. Firstly, it is described about preparation of membrane fraction. Twenty (20) ml of homogenation buffer (10 mM HEPES (pH7.3), 5 mM EDTA, 0.52 mM PMSF, 10 μg/ml pepstatin, 8 μg/ml E64, 20 μg/ml leupeptin) was added to 8×10^7 of TGR23-2 expressing CHO cells, and the cells were disrupted using Polytron (12,000 rpm, 30 seconds×3 times). The cell-disrupted fluids were centrifuged (1,000 g for 15 minutes) to get supernatant. Subsequently the supernatant was ultracentrifuged (Beckman type 30 rotor, 30,000 rpm, one hour), and the precipitate obtained was collected as a membrane fraction of TGR23-2 expressing CHO cells. The GTPγS binding activity was assayed as follows. The membrane fraction of TGR23-2 expressing CHO cells was diluted with membrane dilution buffer (50 mM Tris-HCl buffer (pH7.4), 5 mM MgCl2, 150 mM NaCl, 0.03% NaN3, 0.1% BSA, 1 μM GDP) to get cell membrane fraction solution for assay at the protein concentration of […]. Two (2) μl of 50 nM [^35S]-guanosine 5′-(γ-thio) triphosphate (NEN) and sample were added to 200 μl of cell membrane fraction solution for assay, and the mixture was incubated at 25° C. for one (1) hour. The mixture was filtered, and the filter was washed twice with 1.5 ml of washing buffer (50 mM Tris-HCl buffer (pH7.4), 5 mM MgCl2, 1 mM EDTA, 0.03% NaN3, 0.1% BSA). Then the radioactivity on the filter was measured by liquid scintillation counter. Human TGR23-2 ligand (1-20) prepared by the method described in Example 17, rat TGR23-2 ligand (1-18) prepared by the method described in Example 19 and mouse TGR23-2 ligand (1-20) prepared by the method described in Example 20 were administered to TGR23-2 expressing CHO cells at a variety of concentrations according to the method described above, and the GTPγS binding activity was determined.

[4] = biological target: T2, TGR23-2 expressing CHO cells; experiment: Enhancing activity of intracellular cAMP production; type: cell-based; conditions: with forskolin
Procedure: The CHO/TGR23-2 cells prepared in Example 1 and selected in Example 2 were plated on 24-well plate at 7×10^4 cells/well and cultured for 48 hours. The cells were washed with αMEM medium (pH7.5) containing 0.2 mM 3-isobutyl-methylxanthine, 0.05% BSA and 20 mM HEPES (hereafter, αMEM medium (pH7.5) containing 0.2 mM 3-isobutyl-methylxanthine, 0.05% BSA and 20 mM HEPES may be referred to as a reaction buffer). Subsequently, 0.5 ml of the reaction buffer was added, and the solution was incubated for 30 minutes in the incubator. The reaction buffer was removed and 0.25 ml of the reaction buffer was freshly added to the cells. Then, the cells were admixed with a sample and 0.25 ml of the reaction buffer containing 2 μM forskoline, and incubated at 37° C. for 30 minutes. Intracellular cAMP was extracted by removing the reaction solution and adding 0.5 ml of the solution for cell lysis attached with cAMP EIA Kit (Applied Biosystems). The cAMP level in the extract was quantified with the same kit. Based on this measured value, a calculation was made using the following formula, and the enhancing/inhibiting activity for cAMP production was represented by % of control. The activity of the sample-adding group was calculated using a control value configured in each plate. % of control=(X−C)/(T−C)×100
X: The cAMP level in the sample-adding group
T: The means of the cAMP level in 3 wells of positive control (no sample, with stimulus of forskoline)
C: The means of the cAMP level in 3 wells of negative control (no sample, without stimulus of forskoline)
In addition, for the same sample, in accordance with the method shown in Example 4, an arachidonic acid metabolite releasing activity was assayed.
Four microlitters each of the above-mentioned HPLC active fractions of rat whole brain extracts (Fraction numbers 18, 20 and 22 to 23) was added to 100 μl of 0.2 M ammonium acetate and incubated at 37° C. for 2 hours with 3 μg of Pronase. Subsequently, Pronase added, was inactivated by heating in boiling water for 10 minutes. To this solution, one ml of distilled water containing 0.05 mg of BSA and 0.05 mg of CHAPS was added. Further, it was lyophilized. For the lyophilized sample, enhancing activity for intracellular cAMP production was assayed by adding to TGR23-2 expressing CHO cells according to the method shown in Example 3.
Human TGR23-2 ligand (1-20) prepared by the method described in Example 17 was administered to TGR23-1 expressing CHO cells and TGR23-2 expressing CHO cells at a variety of concentrations according to the method described in Example 3, and the enhancing activity of intracellular cAMP production was determined.
Further, human TGR23-2 ligand (1-20) and rat TGR23-2 ligand (1-18) prepared by the method described in Example 19 were administered to TGR23-1 expressing CHO cells and TGR23-2 expressing CHO cells at a variety of concentrations, and the same assay as described above was carried out under the condition of no forskolin. A calculation was made using the following formula, and the enhancing activity for cAMP production was represented by % of control: % of control=X/C×100;
X: The cAMP level in the sample-adding group; and
C: Control (no sample, without stimulus of forskoline).

Row | GTPγS binding activity [3] | Sequence | increase of intracellular Ca ion concentration [1] | increase of intracellular Ca ion concentration [2] | enhancing activity of intracellular cAMP production [4]
1 | enhance the GTPγS binding activity | SFRNGVGSGAKKTSFRRAKQ [mouse TGR23-2 ligand (1-20)] | clearly enhance an increase of intracellular Ca ion concentration | clearly enhance an increase of intracellular Ca ion concentration | –
2 | – | SFRNGVGSGVKKTS (Rat) [rat TGR23-2 ligand (1-14)] | – | – | specifically exhibits an enhancing activity for cAMP production
3 | – | SFRNGVGSGVKKTSF (Rat) [rat TGR23-2 ligand (1-15)] | – | – | specifically exhibits an enhancing activity for cAMP production
